Test results reported in patent publication US12060588B2, “Methods of editing DNA methylation” (Whitehead Institute for Biomedical Research, priority 2016, dated 2024).

Tests used:
BDNF promoter IV [1] = test: Bisulfite sequencing of BDNF promoter IV in mouse cortical neurons; assay type: cell-based; conditions: with 4 BDNF gRNAs, in contrast to gRNA negative controls
Method: FIGS. 3A-3E depict targeted demethylation of BDNF promoter IV by dCas9-Tet1 to activate BDNF in neurons. FIG. 3A provides a schematic representation of targeting BDNF promoter IV by dCas9-Tet1 (dC-T) with specific gRNAs to erase methylation and activate BDNF expression. […] Bars are mean t SD of three biological replicates. FIG. 3C provides representative confocal images for BDNF induction in FIG. 3B. Top panel: BDNF expression was induced by 50 mM KCl treatment for 6 hrs. […] Stained in red for MAP2 (top two panels) or Cherry (bottom two panels), green for BDNF, blue for DAPI and grey for dCas9. Scale bar: 50 um. FIG. 3D depicts bisulfite sequencing of neurons in FIG. 3C. […] Shown is the mean percentage±SD of two biological replicates.
DNA replication-independent active demethylation has been proposed to operate in post-mitotic neurons (Guo et al., 2011; Martinowich et al., 2003). To test whether active demethylation can be induced in post-mitotic neurons, we applied the dCas9-Tet1 system to study the regulation of the BDNF gene. BDNF expression can be induced by neuronal activity accompanied by demethylation of its promoter IV (Chen et al., 2003; Martinowich et al., 2003). We designed 4 gRNAs targeting 11 CpGs in BDNF promoter IV (FIG. 11A) to determine whether dCas9-Tet1 can activate BDNF by inducing demethylation of this promoter (FIG. 3A). […]

BDNF promoter IV [2] = test: Tet-assisted bisulfite sequencing (TAB-seq) of 5-hmC in BDNF promoter IV; assay type: cell-based, mouse; conditions: with 4 BDNF gRNAs; 40 and 60 hours post infection
Method: FIGS. 11A-11L depict targeted demethylation of BDNF promoter IV by dCas9-Tet1 in neurons. […] PAM for each gRNA is highlighted by a red box. […] Note that cultured neurons were treated with AraC on DIV2 to halt cell division in glial cells and neural progenitors. […] FIG. 11C provides EDU labeling analysis for the mouse primary neurons over the course of KCl treatment for 24 hrs. Note that extremely few EDU positive cells were observed. Stained in red for EDU, green for MAP2 and DAPI for nuclei. Scale bar: 500 um. FIG. 11D Upper panel: provides quantification of neuronal density over the course of KCl treatment. The post-mitotic neuron density remains steadily around 4.5×10^4/cm2 over time. Bars represent mean±SD of three experimental replicates. Lower panel: provides quantification of the EDU positive cells over the course of KCl treatment. Less than 2% of the cells are EDU-positive over 24 hrs. Bars represent mean±SD of three experimental replicates. FIG. 11E provides confocal micrographs of BDNF induction by ectopic expression of dCas9-Tet1 and a set of 4 gRNAs targeting BDNF promoter IV. Stained in green for BDNF, magenta for MAP2, red for Cherry and blue for DAPI. […]
Because post-mitotic neurons were used for these experiments, loss of methylation was likely due to active demethylation. […] Similarly, 5-hmC was also detected after KCl treatment (FIG. 11I). […]

## dCas9-Tet1: catalytically inactive Cas9 (dCas9) fused through NLS to the Tet1 catalytic domain, SEQ ID NO: 159; lentivirally expressed with gRNAs
BDNF promoter IV [1]
  methylation of BDNF promoter IV: significantly reduced methylation
BDNF promoter IV [2]
  5-hmC level in BDNF promoter IV: detected 40-hour post infection with dCas9-Tet1 and gRNA lentiviruses and diminished after 60 hours
